Measured values reported in the supplement of paper PMC10307832.

How the values were obtained:
Assay in all cases: relative viability (nuclei count vs DMSO), 5 days (fraction); higher = more cells survive
[1] = tested on: NCI-H1792
Method in brief: (§1)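 A single step with final 0.05% Triton X-100, 1% formaldehyde and 1 ug/ml Hoechst fixed the cells and stained nuclei 5 days after treatment. Lung cancer cell lines in 1536-well plates had been treated by pin tool the day after seeding with one drug alone or a fixed anchor-drug dose plus five library-drug doses (not always all listed) in √10 steps, and nuclei were counted on 4× images. Relative viability is the ratio of nuclei in treated wells to nuclei in vehicle wells, taken as the median of duplicate plates.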

[2] = tested on: A-427
Method in brief: as §1

[3] = tested on: NCI-H322M
Method in brief: as §1

[4] = tested on: NCI-H3122
Method in brief: as §1

[5] = tested on: NCI-H1437
Method in brief: as §1

[6] = tested on: PC-14
Method in brief: as §1

[7] = tested on: EKVX
Method in brief: as §1

[8] = tested on: LCLC-97TM1
Method in brief: as §1

[9] = tested on: LK-2
Method in brief: as §1

[10] = tested on: NCI-H1915
Method in brief: as §1

[11] = tested on: LXF-289
Method in brief: as §1

[12] = tested on: NCI-H2087
Method in brief: as §1

[13] = tested on: ABC-1
Method in brief: as §1

[14] = tested on: NCI-H460
Method in brief: as §1

[15] = tested on: NCI-H1666
Method in brief: as §1

[16] = tested on: NCI-H647
Method in brief: as §1

[17] = tested on: NCI-H727
Method in brief: as §1

[18] = tested on: NCI-H2085
Method in brief: as §1

[19] = tested on: NCI-H2126
Method in brief: as §1

[20] = tested on: LC-2-ad
Method in brief: as §1

[21] = tested on: NCI-H1703
Method in brief: as §1

[22] = tested on: COR-L23
Method in brief: as §1

[23] = tested on: NCI-H661
Method in brief: as §1

[24] = tested on: NCI-H1563
Method in brief: as §1

## Nc1cccc2c1CN(C1CCC(=O)NC1=O)C2=O (stereo not drawn) [Lenalidomide] + NC(=O)Nc1cc(-c2cccc(F)c2)sc1C(=O)N[C@H]1CCCNC1 [AZD7762] (partner 0.2 µM)
[1]; first compound 0.253 µM
  relative viability: 0.894
[1]; first compound 0.8 µM
  relative viability: 0.571
[1]; first compound 2.53 µM
  relative viability: 0.971
[1]; first compound 8 µM
  relative viability: 0.479
[2]; first compound 0.253 µM
  relative viability: 0.793
[2]; first compound 0.8 µM
  relative viability: 0.878
[2]; first compound 2.53 µM
  relative viability: 0.889
[2]; first compound 8 µM
  relative viability: 0.887
[3]; first compound 0.253 µM
  relative viability: 0.543
[3]; first compound 0.8 µM
  relative viability: 0.55
[3]; first compound 2.53 µM
  relative viability: 0.596
[3]; first compound 8 µM
  relative viability: 0.442
[4]; first compound 0.253 µM
  relative viability: 0.938
[4]; first compound 0.8 µM
  relative viability: 1.03
[4]; first compound 2.53 µM
  relative viability: 1.06
[4]; first compound 8 µM
  relative viability: 0.966
[5]; first compound 0.253 µM
  relative viability: 1.16
[5]; first compound 0.8 µM
  relative viability: 1.23
[5]; first compound 2.53 µM
  relative viability: 1.17
[5]; first compound 8 µM
  relative viability: 1.19
[6]; first compound 0.253 µM
  relative viability: 0.384
[6]; first compound 0.8 µM
  relative viability: 0.297
[6]; first compound 2.53 µM
  relative viability: 0.386
[6]; first compound 8 µM
  relative viability: 0.427
[7]; first compound 0.253 µM
  relative viability: 0.735
[7]; first compound 0.8 µM
  relative viability: 0.941
[7]; first compound 2.53 µM
  relative viability: 0.805
[7]; first compound 8 µM
  relative viability: 0.7
[8]; first compound 0.253 µM
  relative viability: 0.304
[8]; first compound 0.8 µM
  relative viability: 0.114
[8]; first compound 2.53 µM
  relative viability: 0.364
[8]; first compound 8 µM
  relative viability: 0.222
[9]; first compound 0.253 µM
  relative viability: 0.511
[9]; first compound 0.8 µM
  relative viability: 0.366
[9]; first compound 2.53 µM
  relative viability: 0.33
[9]; first compound 8 µM
  relative viability: 0.206
[10]; first compound 0.253 µM
  relative viability: 0.678
[10]; first compound 0.8 µM
  relative viability: 0.699
[10]; first compound 2.53 µM
  relative viability: 0.739
[10]; first compound 8 µM
  relative viability: 0.682
[11]; first compound 0.253 µM
  relative viability: 1.09
[11]; first compound 0.8 µM
  relative viability: 1.1
[11]; first compound 2.53 µM
  relative viability: 1.23
[11]; first compound 8 µM
  relative viability: 1.26
[12]; first compound 0.253 µM
  relative viability: 1.29
[12]; first compound 2.53 µM
  relative viability: 1.29
[12]; first compound 8 µM
  relative viability: 1.23
[13]; first compound 0.253 µM
  relative viability: 0.791
[13]; first compound 0.8 µM
  relative viability: 0.59
[13]; first compound 2.53 µM
  relative viability: 0.929
[13]; first compound 8 µM
  relative viability: 0.856
[14]; first compound 0.253 µM
  relative viability: 0.578
[14]; first compound 0.8 µM
  relative viability: 0.567
[14]; first compound 2.53 µM
  relative viability: 0.596
[14]; first compound 8 µM
  relative viability: 0.754
[15]; first compound 0.253 µM
  relative viability: 0.895
[15]; first compound 0.8 µM
  relative viability: 0.716
[15]; first compound 2.53 µM
  relative viability: 0.985
[15]; first compound 8 µM
  relative viability: 0.874
[16]; first compound 0.253 µM
  relative viability: 0.485
[16]; first compound 0.8 µM
  relative viability: 0.401
[16]; first compound 2.53 µM
  relative viability: 0.499
[16]; first compound 8 µM
  relative viability: 0.498
[17]; first compound 0.253 µM
  relative viability: 0.655
[17]; first compound 0.8 µM
  relative viability: 0.574
[17]; first compound 2.53 µM
  relative viability: 0.555
[17]; first compound 8 µM
  relative viability: 0.709
[18]; first compound 0.253 µM
  relative viability: 0.991
[18]; first compound 0.8 µM
  relative viability: 1.02
[18]; first compound 2.53 µM
  relative viability: 0.982
[18]; first compound 8 µM
  relative viability: 0.919
[19]; first compound 0.253 µM
  relative viability: 0.973
[19]; first compound 0.8 µM
  relative viability: 1.03
[19]; first compound 2.53 µM
  relative viability: 1.05
[19]; first compound 8 µM
  relative viability: 0.947
[20]; first compound 0.253 µM
  relative viability: 0.902
[20]; first compound 0.8 µM
  relative viability: 0.928
[20]; first compound 2.53 µM
  relative viability: 0.865
[20]; first compound 8 µM
  relative viability: 0.94
[21]; first compound 0.253 µM
  relative viability: 0.123
[21]; first compound 0.8 µM
  relative viability: 0.117
[21]; first compound 2.53 µM
  relative viability: 0.131
[21]; first compound 8 µM
  relative viability: 0.135

## Nc1cccc2c1CN(C1CCC(=O)NC1=O)C2=O (stereo not drawn) [Lenalidomide] + Cc1nc(Nc2ncc(C(=O)Nc3c(C)cccc3Cl)s2)cc(N2CCN(CCO)CC2)n1 [Dasatinib] (partner 0.075 µM)
[1]; first compound 0.253 µM
  relative viability: 0.8
[1]; first compound 0.8 µM
  relative viability: 0.69
[1]; first compound 2.53 µM
  relative viability: 0.893
[1]; first compound 8 µM
  relative viability: 0.865
[2]; first compound 0.253 µM
  relative viability: 0.58
[2]; first compound 0.8 µM
  relative viability: 0.851
[2]; first compound 2.53 µM
  relative viability: 0.752
[2]; first compound 8 µM
  relative viability: 0.644
[3]; first compound 0.253 µM
  relative viability: 0.262
[3]; first compound 0.8 µM
  relative viability: 0.279
[3]; first compound 2.53 µM
  relative viability: 0.254
[3]; first compound 8 µM
  relative viability: 0.253
[4]; first compound 0.253 µM
  relative viability: 0.897
[4]; first compound 0.8 µM
  relative viability: 0.991
[4]; first compound 2.53 µM
  relative viability: 0.746
[4]; first compound 8 µM
  relative viability: 0.677
[5]; first compound 0.253 µM
  relative viability: 0.536
[5]; first compound 0.8 µM
  relative viability: 0.45
[5]; first compound 2.53 µM
  relative viability: 0.485
[5]; first compound 8 µM
  relative viability: 0.442
[6]; first compound 0.253 µM
  relative viability: 0.236
[6]; first compound 0.8 µM
  relative viability: 0.28
[6]; first compound 2.53 µM
  relative viability: 0.281
[6]; first compound 8 µM
  relative viability: 0.304
[7]; first compound 0.253 µM
  relative viability: 0.613
[7]; first compound 0.8 µM
  relative viability: 0.495
[7]; first compound 2.53 µM
  relative viability: 0.575
[7]; first compound 8 µM
  relative viability: 0.499
[8]; first compound 0.253 µM
  relative viability: 0.634
[8]; first compound 0.8 µM
  relative viability: 0.939
[8]; first compound 2.53 µM
  relative viability: 0.909
[8]; first compound 8 µM
  relative viability: 0.886
[9]; first compound 0.253 µM
  relative viability: 0.401
[9]; first compound 0.8 µM
  relative viability: 0.332
[9]; first compound 2.53 µM
  relative viability: 0.249
[9]; first compound 8 µM
  relative viability: 0.172
[10]; first compound 0.253 µM
  relative viability: 0.321
[10]; first compound 0.8 µM
  relative viability: 0.329
[10]; first compound 2.53 µM
  relative viability: 0.301
[10]; first compound 8 µM
  relative viability: 0.245
[11]; first compound 0.253 µM
  relative viability: 0.235
[11]; first compound 0.8 µM
  relative viability: 0.347
[11]; first compound 2.53 µM
  relative viability: 0.234
[11]; first compound 8 µM
  relative viability: 0.213
[12]; first compound 0.253 µM
  relative viability: 0.865
[12]; first compound 0.8 µM
  relative viability: 0.851
[12]; first compound 2.53 µM
  relative viability: 0.928
[12]; first compound 8 µM
  relative viability: 0.829
[22]; first compound 0.253 µM
  relative viability: 0.541
[22]; first compound 0.8 µM
  relative viability: 0.507
[22]; first compound 2.53 µM
  relative viability: 0.63
[22]; first compound 8 µM
  relative viability: 0.569
[13]; first compound 0.253 µM
  relative viability: 0.591
[13]; first compound 0.8 µM
  relative viability: 0.482
[13]; first compound 2.53 µM
  relative viability: 0.602
[13]; first compound 8 µM
  relative viability: 0.55
[14]; first compound 0.253 µM
  relative viability: 0.597
[14]; first compound 0.8 µM
  relative viability: 0.473
[14]; first compound 2.53 µM
  relative viability: 0.673
[14]; first compound 8 µM
  relative viability: 0.308
[23]; first compound 0.253 µM
  relative viability: 0.934
[23]; first compound 0.8 µM
  relative viability: 0.854
[23]; first compound 2.53 µM
  relative viability: 0.918
[23]; first compound 8 µM
  relative viability: 0.86
[15]; first compound 0.253 µM
  relative viability: 0.858
[15]; first compound 2.53 µM
  relative viability: 0.849
[15]; first compound 8 µM
  relative viability: 0.783
[24]; first compound 0.253 µM
  relative viability: 0.477
[24]; first compound 0.8 µM
  relative viability: 0.43
[24]; first compound 2.53 µM
  relative viability: 0.499
[24]; first compound 8 µM
  relative viability: 0.464
[16]; first compound 0.253 µM
  relative viability: 0.14
[16]; first compound 0.8 µM
  relative viability: 0.176
[16]; first compound 2.53 µM
  relative viability: 0.319
[16]; first compound 8 µM
  relative viability: 0.129
[17]; first compound 0.253 µM
  relative viability: 0.357
[17]; first compound 0.8 µM
  relative viability: 0.326
[17]; first compound 2.53 µM
  relative viability: 0.335
[17]; first compound 8 µM
  relative viability: 0.384
[18]; first compound 0.253 µM
  relative viability: 0.253
[18]; first compound 0.8 µM
  relative viability: 0.259
[18]; first compound 2.53 µM
  relative viability: 0.243
[18]; first compound 8 µM
  relative viability: 0.214
[19]; first compound 0.253 µM
  relative viability: 0.661
[19]; first compound 0.8 µM
  relative viability: 0.559
[19]; first compound 2.53 µM
  relative viability: 0.678
[19]; first compound 8 µM
  relative viability: 0.479
[20]; first compound 0.253 µM
  relative viability: 0.49
[20]; first compound 2.53 µM
  relative viability: 0.727
[20]; first compound 8 µM
  relative viability: 0.395
